From paper PMC9380671, “Development of spiro-3-indolin-2-one containing compounds of antiproliferative and anti-SARS-CoV-2 properties” (Scientific Reports, 2022)
Where two headings read alike, the source gives them in different places.

How the values were obtained:
[1] = target: AChE (Homo sapiens, UniProt P22303); assay: AChE inhibition (DTNB, acetylthiocholine); assay type: biochemical; conditions: for IC50: read-out: AChE (IC50, μM) ± SD
Experimental: All compounds were dissolved in MeOH.

[2] = system: RPE1 (normal human immortalized retinal pigment epithelial cell line); assay: MTT toxicity towards normal cells, RPE1; assay type: cell-based; conditions: RPE-1, read-out: IC50 (µM) ± SEM RPE1
Experimental: The safety of the synthesized agents against non-cancer/normal RPE1 (retinal pigment epithelium) cell line was assessed (Table 1, Supplementary Fig. S52). The SI (selectivity index) for the tested compounds against RPE1 cell line confirms the safety towards non-cancer cells. […] Compound 6d and 6h which are also of high anti-PaCa2 show remarkable SI values (SI = > 3.8, > 3.6, respectively).
The agents synthesized were also tested against RPE1 (normal human immortalized retinal pigment epithelial cell line) cell (in DMEM-F12 medium) to determine the toxicity/selectivity towards normal cells relative to the cancer cell lines utilized.
(§1) Statistical calculations for determination of the mean and standard error mean values were determined by SPSS 16 software. The observed anti-proliferative properties are presented in Table 1 (Supplementary Figs. S48‒S52).

[3] = system: MCF7 (breast) cancer cell line; assay: MTT antiproliferation, MCF7; assay type: cell-based, human; conditions: for IC50: Homo sapiens, MCF7, 72 h, read-out: IC50 (µM) ± SEM MCF7; for SI (selectivity index) MCF7: IC50 of RPE1/IC50 of cancer cell line
Experimental: (§2) Antiproliferation properties of the targeted agents were investigated by the standard MTT technique against diverse human cancer cell lines [MCF7 (breast), HCT116 (colon), A431 (skin squamous) and PaCa2 (pancreatic)][67] (Table 1, Supplementary Figs. S48‒S51).
(§3) Cells were seeded at concentration of 30000 cells per well in fresh complete growth medium in 96-well tissue culture microtiter plates for 24 h. […] 0.5% DMSO was used as negative control. Triplicate wells were prepared for each individual dose. After 72 h of incubation, medium was aspirated, 40 μl MTT salt (2.5 mg ml^-1) was added to each well and incubated for further 4 h at 37 °C. To stop the reaction and dissolve the formed crystals, 150 μl of 10% sodium dodecyl sulfate (SDS) in deionized water was added to each well and incubated overnight at 37 °C.
(§4) Data were collected as mean values for experiments performed in triplicates for each individual dose which had been measured by MTT assay. […] The cell surviving fraction was calculated according to the following equation.
(§5) Surviving fraction = OpticaldensityO.D.oftreatedcellsO.D.ofcontrolcells
(§6) Statistical calculations for determination of the mean and standard error mean values were determined by SPSS 16 software.

[4] = MTT cytotoxicity assay (CC50); assay type: cell-based; conditions: African green monkey, VERO-E6 cells
Experimental: The cytotoxic activity of the compounds was tested in VERO-E6 cells by using the 3-(4,5-dimethylthiazol-2-yl)-2,5-diphenyltetrazolium bromide (MTT) method with minor modifications. Briefly, the cells were seeded in 96 well-plates […] at a density of 3 x 10^5 cell/ml and incubated for 24 h at 37 °C in 5% CO2. After 24 h, cells were treated with various concentrated of the tested compounds in triplicates. 24 h later, the supernatant was discarded and cell monolayers were washed with sterile 1x phosphate buffer saline (PBS) 3 times and MTT solution (20 µl of 5 mg/ml) was added to each well and incubated at 37 °C for 4 h followed by medium aspiration. In each well, the formed formazan crystals were dissolved with 200 µl of acidified isopropanol (0.04 M HCl in absolute isopropanol = 0.073 ml HCl in 50 ml isopropanol). Eventually, the absorbance was measured at λmax 570 nm using the Anthos Zenyth 200rt plate reader (Anthos Labtec Instruments, Heerhugowaard, Netherlands). The cytotoxicity of various concentrations compared to the untreated cells was determined using nonlinear regression analysis by plotting log inhibitor versus normalized response.^12^-14

[5] = system: HCT116 (colon) cancer cell line; assay: MTT antiproliferation, HCT116; assay type: cell-based, human; conditions: for IC50: Homo sapiens, HCT-116, 72 h, read-out: IC50 (µM) ± SEM HCT116; for SI (selectivity index) HCT116: IC50 of RPE1/IC50 of cancer cell line
Experimental: as §2, §3, §4, §5, §6

[6] = system: PaCa2 (pancreatic) cancer cell line; assay: MTT antiproliferation, PaCa-2; assay type: cell-based, human; conditions: for IC50: Homo sapiens, PaCa-2, 72 h, read-out: IC50 (µM) ± SEM PaCa-2; for SI (selectivity index) PaCa-2: IC50 of RPE1/IC50 of cancer cell line
Experimental: as §2
Cells were suspended in DMEM medium for MCF7, A431, PaCa-2 and McCoy’s 5A for HCT116 in addition to 1% antibiotic–antimycotic mixture (10000 μg ml^-1 potassium penicillin, 10000 μg ml^-1 streptomycin sulfate and 25 μg ml^-1 amphotericin B), 10% fetal bovine serum and 1% L-glutamine at 37 °C, under 5% CO2 and 95% humidity. Cells were seeded at concentration of 30000 cells per well in fresh complete growth medium in 96-well tissue culture microtiter plates for 24 h. Media was aspirated, fresh complete medium was added and cells were incubated with different concentrations of the tested compound to give a final concentration of [50, 25, 12.5 and 6.25 μM “in addition to 3.125, 1.56 and 0.78 μM in case of high potent analogues”). 0.5% DMSO was used as negative control. Triplicate wells were prepared for each individual dose. After 72 h of incubation, medium was aspirated, 40 μl MTT salt (2.5 mg ml^-1) was added to each well and incubated for further 4 h at 37 °C. To stop the reaction and dissolve the formed crystals, 150 μl of 10% sodium dodecyl sulfate (SDS) in deionized water was added to each well and incubated overnight at 37 °C. The absorbance was then measured at 570 nm and a reference wavelength of 595 nm.
as §4, §5, §1

[7] = system: SARS-CoV-2 (hCoV-19/Egypt/NRC-03/2020); assay: Vero-E6 cell viral infection model, anti-SARS-CoV-2 IC50 (CPE, crystal violet); assay type: cell-based; conditions: for IC50: Severe acute respiratory syndrome coronavirus 2, Vero C1008; for SI = CC50/IC50: Vero-E6, SARS-CoV-2
[8] = target: BChE (Homo sapiens, UniProt P06276); assay: BChE inhibition (DTNB, butyrylthiocholine iodide)
BChE, sequence (P06276 29-602, species assumed): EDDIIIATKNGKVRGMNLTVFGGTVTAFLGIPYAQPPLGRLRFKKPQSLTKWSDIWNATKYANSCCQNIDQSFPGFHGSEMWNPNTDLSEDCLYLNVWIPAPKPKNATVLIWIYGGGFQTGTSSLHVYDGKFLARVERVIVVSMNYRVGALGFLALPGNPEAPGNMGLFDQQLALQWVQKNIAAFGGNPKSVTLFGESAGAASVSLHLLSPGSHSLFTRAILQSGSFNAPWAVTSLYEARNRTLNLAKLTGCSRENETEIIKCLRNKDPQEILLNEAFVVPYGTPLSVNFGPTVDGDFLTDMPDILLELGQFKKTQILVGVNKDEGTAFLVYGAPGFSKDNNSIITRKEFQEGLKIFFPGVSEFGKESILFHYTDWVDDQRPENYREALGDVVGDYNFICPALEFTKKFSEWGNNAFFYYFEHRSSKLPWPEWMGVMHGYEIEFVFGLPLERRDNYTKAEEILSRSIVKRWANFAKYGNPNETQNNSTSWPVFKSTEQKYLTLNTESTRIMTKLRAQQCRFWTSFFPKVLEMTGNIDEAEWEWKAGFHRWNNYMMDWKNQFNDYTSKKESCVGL

[9] = system: A431 (skin squamous) cancer cell line; assay: MTT antiproliferation, A431; assay type: cell-based, human; conditions: for IC50: Homo sapiens; for SI (selectivity index) A431: IC50 of RPE1/IC50 of cancer cell line
Experimental: as §2, §3, §4, §5, §6

[10] = target: T1, VEGFR-2 (Homo sapiens, UniProt P35968); assay type: cell-based; conditions: western blot, MCF7, compound at its MTT IC50; for VEGFR-2 RQ (relative quantification): control RQ 3.2634
T1 construct: Western blot technique was considered for EGFR and VEGFR-2 properties determination; endogenous in cells; host or cells: MCF7 (breast cancer cell line)
T1 sequence (P35968 20-1356): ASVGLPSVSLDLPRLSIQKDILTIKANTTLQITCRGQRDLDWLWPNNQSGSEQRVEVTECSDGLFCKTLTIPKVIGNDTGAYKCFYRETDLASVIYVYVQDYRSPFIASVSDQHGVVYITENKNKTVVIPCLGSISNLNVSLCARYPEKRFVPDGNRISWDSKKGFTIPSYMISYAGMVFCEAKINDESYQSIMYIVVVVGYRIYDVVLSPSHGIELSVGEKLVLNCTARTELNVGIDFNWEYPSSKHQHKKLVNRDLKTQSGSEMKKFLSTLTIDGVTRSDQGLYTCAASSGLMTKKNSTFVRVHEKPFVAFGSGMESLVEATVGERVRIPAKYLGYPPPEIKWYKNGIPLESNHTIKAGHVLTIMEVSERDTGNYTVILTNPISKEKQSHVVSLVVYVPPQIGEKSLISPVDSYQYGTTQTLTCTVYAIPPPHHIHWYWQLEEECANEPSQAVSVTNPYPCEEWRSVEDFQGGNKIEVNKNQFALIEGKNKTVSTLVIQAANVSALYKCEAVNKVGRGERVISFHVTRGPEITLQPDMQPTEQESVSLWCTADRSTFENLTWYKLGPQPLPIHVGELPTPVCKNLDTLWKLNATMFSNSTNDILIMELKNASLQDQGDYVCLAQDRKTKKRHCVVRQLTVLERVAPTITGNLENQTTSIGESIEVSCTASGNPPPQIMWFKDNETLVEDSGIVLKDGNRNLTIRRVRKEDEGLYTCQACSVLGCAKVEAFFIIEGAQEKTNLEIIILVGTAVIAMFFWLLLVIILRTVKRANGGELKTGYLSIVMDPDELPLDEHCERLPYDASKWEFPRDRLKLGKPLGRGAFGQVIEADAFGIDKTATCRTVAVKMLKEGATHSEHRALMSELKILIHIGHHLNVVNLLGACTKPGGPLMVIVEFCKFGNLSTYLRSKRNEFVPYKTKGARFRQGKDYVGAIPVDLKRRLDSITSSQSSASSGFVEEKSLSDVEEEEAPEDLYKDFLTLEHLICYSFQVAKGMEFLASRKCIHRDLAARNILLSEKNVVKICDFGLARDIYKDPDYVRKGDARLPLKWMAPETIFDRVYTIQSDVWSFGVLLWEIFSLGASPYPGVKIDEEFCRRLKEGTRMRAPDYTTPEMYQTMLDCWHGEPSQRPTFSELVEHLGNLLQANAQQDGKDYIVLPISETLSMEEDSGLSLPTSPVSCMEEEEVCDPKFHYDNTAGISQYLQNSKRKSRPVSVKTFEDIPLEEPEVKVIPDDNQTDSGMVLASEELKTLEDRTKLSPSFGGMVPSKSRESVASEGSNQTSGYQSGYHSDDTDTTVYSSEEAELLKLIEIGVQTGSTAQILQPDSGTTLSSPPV
Text: (§7) The western blot technique was applied utilizing the IC50 observed for each respective agent synthesized during MTT assay[85],[86]. Consideration of multi-targeted inhibitory properties investigation is based in the fact that cancer initiation and proliferation sometimes utilizes many receptors or signaling pathways.
(§8) Western blot technique was considered for EGFR and VEGFR-2 properties determination utilizing the IC50 observed of each respective agent synthesized during MTT assay against MCF7 (breast) cancer cell line. All the studies were conducted according to the manufacturer’s instruction.^10,^11

[11] = target: T2, EGFR (Homo sapiens, UniProt P00533); assay type: cell-based; conditions: western blot, MCF7, compound at its MTT IC50; for EGFR RQ (relative quantification): control RQ 3.4461
T2 construct: Western blot technique was considered for EGFR and VEGFR-2 properties determination; endogenous in cells; host or cells: MCF7 (breast cancer cell line)
T2 sequence (P00533 25-1210): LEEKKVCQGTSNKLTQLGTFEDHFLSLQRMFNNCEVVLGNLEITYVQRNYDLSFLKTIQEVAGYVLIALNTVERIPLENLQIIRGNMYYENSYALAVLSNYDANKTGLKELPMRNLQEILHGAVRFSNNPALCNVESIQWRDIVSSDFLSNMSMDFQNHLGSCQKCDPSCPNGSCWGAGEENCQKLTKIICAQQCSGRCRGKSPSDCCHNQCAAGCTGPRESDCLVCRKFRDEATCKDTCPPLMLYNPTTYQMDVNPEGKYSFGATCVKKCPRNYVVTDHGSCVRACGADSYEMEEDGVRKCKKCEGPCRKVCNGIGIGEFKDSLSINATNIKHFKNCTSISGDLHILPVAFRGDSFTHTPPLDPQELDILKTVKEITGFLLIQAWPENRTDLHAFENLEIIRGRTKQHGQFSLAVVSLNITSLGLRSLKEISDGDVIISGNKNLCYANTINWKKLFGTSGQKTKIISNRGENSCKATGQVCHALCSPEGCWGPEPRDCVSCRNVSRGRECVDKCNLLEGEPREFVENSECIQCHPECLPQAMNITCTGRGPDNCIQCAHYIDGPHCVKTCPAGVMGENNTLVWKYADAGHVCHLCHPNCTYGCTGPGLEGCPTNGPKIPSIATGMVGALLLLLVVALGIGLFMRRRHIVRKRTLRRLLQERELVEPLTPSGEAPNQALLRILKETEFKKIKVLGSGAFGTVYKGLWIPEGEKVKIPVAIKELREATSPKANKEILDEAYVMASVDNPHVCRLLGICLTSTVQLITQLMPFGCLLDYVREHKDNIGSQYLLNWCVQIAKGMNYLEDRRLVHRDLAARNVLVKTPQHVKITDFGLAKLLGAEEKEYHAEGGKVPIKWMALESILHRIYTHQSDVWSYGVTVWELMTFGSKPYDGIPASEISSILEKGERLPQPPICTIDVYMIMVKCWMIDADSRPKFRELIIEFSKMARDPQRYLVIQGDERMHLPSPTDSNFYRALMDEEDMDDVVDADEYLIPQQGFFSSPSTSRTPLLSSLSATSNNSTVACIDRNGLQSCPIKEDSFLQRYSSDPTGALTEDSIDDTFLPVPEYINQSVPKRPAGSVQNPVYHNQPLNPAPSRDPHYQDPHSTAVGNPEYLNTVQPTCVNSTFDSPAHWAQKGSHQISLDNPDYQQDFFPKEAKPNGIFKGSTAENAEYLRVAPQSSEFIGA
Text: as §7, §8

[12] = Vero-E6, 72 h, reduction of virus-induced CPE, read-out: IC50 (µM) SARS-CoV-2
[13] = log of observed IC50 in μM, read-out: Observed log(IC50, μM) (SARS-CoV-2) (converted)
[14] = A-431, 72 h, read-out: IC50 (µM) ± SEM A431
[15] = A-431, read-out: Observed log(IC50, μM) (A431) (converted)

AChE, sequence (P22303 32-614): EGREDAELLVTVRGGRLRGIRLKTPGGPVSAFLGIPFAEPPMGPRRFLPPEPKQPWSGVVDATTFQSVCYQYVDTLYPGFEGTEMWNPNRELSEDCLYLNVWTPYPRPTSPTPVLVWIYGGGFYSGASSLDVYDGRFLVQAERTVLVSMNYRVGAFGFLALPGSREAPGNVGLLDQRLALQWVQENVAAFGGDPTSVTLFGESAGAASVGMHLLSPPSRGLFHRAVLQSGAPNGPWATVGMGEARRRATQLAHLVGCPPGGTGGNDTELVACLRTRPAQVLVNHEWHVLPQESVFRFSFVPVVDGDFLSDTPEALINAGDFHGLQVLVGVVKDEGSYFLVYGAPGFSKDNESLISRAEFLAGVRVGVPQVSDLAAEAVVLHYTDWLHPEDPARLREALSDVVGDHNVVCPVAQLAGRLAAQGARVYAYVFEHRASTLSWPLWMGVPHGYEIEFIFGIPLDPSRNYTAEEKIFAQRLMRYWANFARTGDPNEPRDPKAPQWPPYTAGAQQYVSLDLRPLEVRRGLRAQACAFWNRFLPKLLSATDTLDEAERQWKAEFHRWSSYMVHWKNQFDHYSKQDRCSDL

| SMILES | SI = IC50 (AChE)/IC50 (BChE) [1] | IC50 [1] [µM] | IC50 [2] [µM] | IC50 [3] [µM] | SI (selectivity index) MCF7 [3] | CC50 at 24 h [4] [µM] | IC50 [5] [µM] | SI (selectivity index) HCT116 [5] | IC50 [6] [µM] | SI (selectivity index) PaCa-2 [6] | IC50 [7, 12] [µM] | IC50 [7, 13] [µM] | SI = CC50/IC50 [7] | IC50 [8] [µM] | IC50 [9, 14] [µM] | IC50 [9, 15] [µM] | SI (selectivity index) A431 [9] | VEGFR-2 % Inhibition [10] [%] | VEGFR-2 RQ (relative quantification) [10] | EGFR % Inhibition [11] [%] | further results |
| --- | --- | --- | --- | --- | --- | --- | --- | --- | --- | --- | --- | --- | --- | --- | --- | --- | --- | --- | --- | --- | --- |
| COc1ccc(/C=C2\CN(S(C)(=O)=O)CC3(C2=O)C(c2ccc(OC)c(OC)c2)CN(C)C32C(=O)Nc3ccccc32)cc1OC (stereo not drawn) [Compound 6n, (E)-5″-(3,4-Dimethoxybenzylidene)-4′-(3,4-dimethoxyphenyl)-1′-methyl-1″-(methylsulfonyl)dispiro[indoline-3,2′-pyrrolidine-3′,3″-piperidine]-2,4″-dione] | 0.9 | 5.4 ± 0.94 | > 50 | 40.2 ± 1.1 | > 1.2 | 621 | 15.4 ± 0.52 | > 3.2 | 32.8 ± 1.21 | > 1.5 | 35.9 | 35.9 | 17.3 | 6.33 ± 0.85 | 34.9 ± 1.36 | 34.9 | > 1.4 | 64.2 | 1.167 | 69.6 | EGFR RQ (relative quantification) [11]: 1.047 |
| CCS(=O)(=O)N1C/C(=C\c2ccc(F)cc2)C(=O)C2(C1)C(c1ccc(F)cc1)CN(C)C21C(=O)Nc2ccc(Cl)cc21 (stereo not drawn) [Compound 6h, (E)-5-Chloro-1″-(ethylsulfonyl)-5″-(4-fluorobenzylidene)-4′-(4-fluorophenyl)-1′-methyldispiro[indoline-3,2′-pyrrolidine-3′,3″-piperidine]-2,4″-dione] | 0.8 | 6.3 ± 0.97 | > 50 | 4.69 ± 0.44 | > 10.7 | 262 | 4.6 ± 0.18 | > 10.9 | 14 ± 0.73 | > 3.6 | 7.69 | 7.69 | 34.1 | 8.07 ± 1.47 | 6.04 ± 0.26 | 6.04 | > 8.3 | 66.2 | 1.104 | 67.2 | EGFR RQ (relative quantification) [11]: 1.13 |
| CN1CC(c2ccc(F)cc2)C2(CN(S(C)(=O)=O)C/C(=C\c3ccc(F)cc3)C2=O)C12C(=O)Nc1ccccc12 (stereo not drawn) [Compound 6e, (E)-5″-(4-Fluorobenzylidene)-4′-(4-fluorophenyl)-1′-methyl-1″-(methylsulfonyl)dispiro[indoline-3,2′-pyrrolidine-3′,3″-piperidine]-2,4″-dione] | 0.7 | 15.1 ± 5.76 | 49 ± 1.11 | 15.5 ± 0.76 | 3.2 | 203 | 9.89 ± 0.85 | 5.0 | 39.9 ± 1.89 | 1.2 | 27.9 | 27.9 | 7.3 | 22.2 ± 4.54 | 16.1 ± 0.99 | 16.1 | 3.1 | 64.5 | 1.158 | 66.7 | EGFR RQ (relative quantification) [11]: 1.147 |
| CCS(=O)(=O)N1C/C(=C\c2ccc(F)cc2)C(=O)C2(C1)C(c1ccc(F)cc1)CN(C)C21C(=O)Nc2ccccc21 (stereo not drawn) [Compound 6g, (E)-1″-(Ethylsulfonyl)-5″-(4-fluorobenzylidene)-4′-(4-fluorophenyl)-1′-methyldispiro[indoline-3,2′-pyrrolidine-3′,3″-piperidine]-2,4″-dione] | 0.8 | 2.46 ± 0.99 | 33.4 ± 1.22 | 10.3 ± 0.86 | 3.2 | 79.2 | 4.94 ± 0.25 | 6.8 | 28.4 ± 0.85 | 1.2 | 16.9 | 16.9 | 4.7 | 3.22 ± 0.92 | 6.17 ± 0.44 | 6.17 | 5.4 | 63.7 | 1.186 | 62.8 | EGFR RQ (relative quantification) [11]: 1.28 |
